According to patent US7090846B2 (priority 1999, dated 2006):

How the values were obtained:
[1] = test system: transplantable rodent tumors (P-388 lymphoid leukemia, S-180 sarcoma); conditions: mouse, in vivo
Description: The tumor growth inhibitory effect of the polycation bioconjugates was studied on the following transpalatable rodent tumors: • P-388 lymphoid leukemia cells, originated from Cambridge, Mass., USA, were transplanted i.p. and s.c. into animals: BDF1 inbred male mice, weighing 22–24 g, specified pathogen free (SPF) breedings; • S-180 sarcoma, originated from Chester Beatty I., London, were transplanted s.c. into animals: BDFI inbred male mice, weighing 22–24 g, specified pathogen free (SPF) breedings.

[2] = test system: tumor cell cultures (P388, MCF-7, PC3); conditions: in vitro; for inhibition on the cell proliferation: serial dilutions, vs untreated control; for comparison among the conjugates: inhibition on the cell proliferation: ranking among tested conjugates
Description: (§1) Cell Lines Used in the Experiments: • P388 mouse lymphocytic leukemia cell line, originated from Arthur D. Little Inc., Cambridge, Mass., USA, in vitro established in the National Institute of Oncology, Budapest, Hungary (Cancer Treat. Rep. 1986; 70: 279–284); • MCF-7 humane breast cancer cell line, originated from American Type Culture Collection; • PC3 humane prostate cancer cell line, originated from American Type Culture Collection;
Sulforodamine B (SRB) assay: approximately one to two thousand cells were put into each well of the special, small plastic tray (micro-well-plates). The cells were incubated in adequate medium and conditions and after adhering to the surface, were treated with serial dilutions of the different polycation bioconjugates, prepared according to the invention. At the end of the experiment the cells were fixed, stained with SRB, and the optical density, which is in direct proportion to the cell proliferation, was read in a CLS 962 ELISA microplate reader. Relative inhibition of proliferation was calculated by taking the control values as 100 per cent. (Cancer Detection and Prevention, 20(2): 146–152, 1996).
Cell counting method, with Neubauer-type chamber: in suspension cultures of exponentially growing cells, which were in adequate medium and conditions, were treated with serial dilutions of the different polycation bioconjugates, prepared according to the invention, and 24- and 48 hours following the treatment the cells were stained with tripan-blue, the treated and control cells were counted in a modified Neubauer-type hemocytometer chamber. Relative inhibition of proliferation was calculated by taking the control values as 100 per cent.

[3] = test system: MCF-7, or PC3 cells; conditions: tumor cell cultures, in vitro; for inhibition on the colony formation: serial dilutions, vs untreated control; for comparison among the conjugates: inhibition on the colony formation: ranking among tested conjugates
Method: as §1
MCF-7, or PC3 cells were plated into petri dishes, then in adequate medium and conditions, were incubated the cells with serial dilutions of the different polycation bioconjugates, prepared according to the invention. The colonies, consisting minimum 30 cells were then counted and the obtained values of three parallel petri dishes were averaged. Relative cloning efficiency was calculated by taking the control values as 100 per cent. (Cancer Detection and Prevention, 20(2): 146–152, 1996).

Row | Substance | inhibitory effect on transplantable rodent tumors (mean tumor volumes, tumor growth curves) [1] | inhibition on the cell proliferation [2] | inhibition on the colony formation [3] | comparison among the conjugates: inhibition on the cell proliferation [2] | comparison among the conjugates: inhibition on the colony formation [3]
1 | cholesterol-hemisuccinyl-poly-(ε)-L-lysine-hydrogen-bromide | significant inhibitory effect | dose dependent inhibition | dose dependent inhibition | – | –
2 | palmitoyl-poly-(ε)-L-lysine-hydrogen-bromide | significant inhibitory effect | dose dependent inhibition | dose dependent inhibition | most effective inhibition | most effective inhibition
3 | poly-(ε)-L-lysine-cisplatin-hydrogen-bromide | – | dose dependent inhibition | dose dependent inhibition | most effective inhibition | most effective inhibition
